Test [1] has as its system Wnt activity (Sp5-Luc reporter in SW480 colon carcinoma cells). The test is described as follows: Wnt activity screening assay (Sp5-Luc reporter gene assay). The format is cell-based, human. To be noted: Homo sapiens; for EC50: Sp5-Luc reporter, SW480 cells, 36 to 48 hours. Summed up:
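Compounds at 10 points (1:3 steps, top 10 μM, 0.1% DMSO final) were incubated 36 to 48 h at 37° C with stable Sp5-Luc SW480 reporter cells in 1% FBS medium. Luciferase luminescence was then read and expressed relative to DMSO-only cells. Four-parameter variable-slope fitting yielded EC50 values.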
A general note: A reporter such as luciferase makes a cellular process visible.

For the next test, the target named is GSK3β kinase (Homo sapiens (Human), UniProt P49841). As to the kind of experiment: GSK3β kinase assay (Ser/Thr 09 peptide Z-lyte, FRET).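 Note: Coumarin/fluorescein emission ratio converted to percent phosphorylation against unphosphorylated (0%) and phosphorylated (100%) controls, 1 h compound incubation at room temperature, 11-point threefold dilutions from 10 µM, run in duplicate.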 It is filed as biochemical. The settings on record: method text calls the value IC50.
GSK3β kinase, sequence (P49841 whole entry): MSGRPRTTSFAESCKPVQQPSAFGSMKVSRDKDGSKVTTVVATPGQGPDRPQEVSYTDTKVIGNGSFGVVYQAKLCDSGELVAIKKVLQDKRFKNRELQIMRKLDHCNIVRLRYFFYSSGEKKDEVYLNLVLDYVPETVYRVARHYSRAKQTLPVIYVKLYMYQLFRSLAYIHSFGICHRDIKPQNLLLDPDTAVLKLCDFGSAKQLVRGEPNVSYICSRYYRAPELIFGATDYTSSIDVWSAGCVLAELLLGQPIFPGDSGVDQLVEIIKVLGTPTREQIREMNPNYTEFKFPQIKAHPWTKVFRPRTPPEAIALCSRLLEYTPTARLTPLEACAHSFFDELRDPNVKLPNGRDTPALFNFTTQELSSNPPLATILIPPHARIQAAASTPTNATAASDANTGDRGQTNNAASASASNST
Test [2] concerns SW480 colon carcinoma cells. As to the kind of experiment: Cell viability assay (CellTiter-Glo) in SW480 cells.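 Note: SW480 cells stably carrying an Sp5-luciferase TCF/LEF reporter, luminescent ATP signal as viability measure, DMSO-treated cells as control.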 It is filed as cell-based, human.
In test [3] the test system is LL29 cells (primary human fibroblasts derived from IPF patients), α-smooth muscle actin. The test is described as follows: Inhibition of fibrotic process: αSMA in TGF-β1-treated primary human fibroblasts from IPF patients (LL29 cells). It is filed as cell-based. To be noted: Homo sapiens, Fibroblast; for EC50: 96 h, % αSMA-positive LL29 cells, TGF-β1 20 ng/mL, 4 days; for inhibition at 10 µM: read-out: percent inhibition at 10 μM. Summed up: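 Read-out is the percentage of αSMA-positive cells by high-content imaging, excluding SYTOX green-positive dead/apoptotic cells, normalized to TGF-β1-only wells on the same plate. LL29 cells were exposed for 4 days at 37 °C to 20 ng/mL TGF-β1 plus 11-point, 2-fold compound dilutions in 0.1% DMSO.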

In a further test the target is DYRK1A kinase (Homo sapiens (Human), UniProt Q13627). As to the kind of experiment: DYRK1A kinase assay (Ser/Thr 18 peptide Z-lyte, FRET).
Test [4] deals with Tau phosphorylation at Ser396 (pSer396), SH-SY5Y cells. The test is described as follows: Tau phosphorylation at Ser396 (pSer396) in SH-SY5Y cells, ELISA/western blot.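 Note: cell lysates probed for reduced Tau pSer396 via ELISA (colorimetric) or western blot (chemiluminescence), both with one shared pSer396 antibody, EC50 for lowering phosphorylation.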 The format is cell-based, human. To be noted: Homo sapiens. In general terms: ELISA stands for enzyme-linked immunosorbent assay.
A further test deals with IL-6. As to the kind of experiment: IL-6 inhibition in LPS-stimulated human peripheral blood mononuclear cells (HTRF). It is filed as cell-based. The settings on record: Homo sapiens, PBMC; for EC50: IL-6, LPS-stimulated huPBMCs, HTRF; for inhibition at 10 µM: read-out: percent value in parentheses below EC50 >10. The method in brief:
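EC50 from a 4-parameter fit of DMSO-normalized HTRF (665/620 nm) IL-6 signal, duplicates. Compound was added to fresh human PBMCs in 1% FBS RPMI for 2 h (top 10 μM, 3-fold, 0.25% DMSO) before 22 h stimulation with LPS at 50 ng/mL, 37 °C.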
A general note: In TR-FRET formats the signal depends on donor and acceptor labels being close together.

Where [5] appears, read: Homo sapiens, 96 h; cell viability, SW480 cells, four days, CellTiter-Glo.
Where [6] appears, read: DYRK1A kinase, method text calls the value IC50.
Where [7] appears, read: SH-SY5Y cells, overnight (16-18 h), read-out: pSer396 Tau EC50.

For twelve compounds, EC50 and inhibition results are on record in patent US10604514B2, “6-(5-membered heteroaryl)isoquinolin-3-yl carboxamides and preparation and use thereof” (Samumed, LLC, priority 2017, dated 2020).

By EC50 is commonly meant the concentration needed to bring the measured effect to its halfway point.

Read-outs that look alike come from different tables or passages of the source. Some results are limits rather than exact numbers.

Procedure for GSK3β kinase: Representative compounds were screened using the assay procedure for GSK30 kinase activity as described below.
Each compound is dissolved in DMSO as a 10 mM stock and used to prepare compound source plates. Serial dilution (1:3, 11-point dose-response curves from 10 M to 0.0003 μM) and compound transfer was performed using the ECHO 550 (Labcyte, Sunnyvale, Calif.) into 1536-well black-walled round bottom plates (Corning).
This is a non-radioactive assay using fluorescence resonance energy transfer (FRET) between coumarin and fluorescein to detect kinase activity which is represented as ratio of coumarin emission/fluorescein emission.
The mixture is allowed to incubate with the representative compounds for one hour at room temperature. All reactions were performed in duplicate. Unphosphorylated (“0% Control”) and phosphorylated (“100% control”) forms of Ser/Thr 18 serve as control reactions.
After incubation, diluted Development Buffer is added to the reaction and allowed to further incubate for one hour at room temperature.
The percent phosphorylation is then calculated using the following formula: [1−((Em ratio×F100%)−C100%)/((C0%−C100%)+(Em ratio×(F100%−F0%)))].
Dose-response curves are generated and inhibitory concentration (IC50) values are calculated using non-linear regression curve fit in the Dotmatics' Studies Software (Bishops Stortford, UK).

Consider `Cc1ncc(-c2ccc3cnc(NC(=O)[C@H]4CC[C@H](NCC(F)F)CC4)cc3c2)o1` [Compound 104, trans-4-((2,2-Difluoroethyl)amino)-N-(6-(2-methyloxazol-5-yl)isoquinolin-3-yl)cyclohexane-1-carboxamide], for which the EC50 in test [1] came to 3600 nM; at GSK3β kinase it was 149 nM; in test [2] (setting [5]), 4590 nM; in test [3] it was 220 nM; on DYRK1A kinase (setting [6]), 8 nM; in test [4] (setting [7]) it was 0.712 µM. This compound returned a 50% effective concentration (EC50) in the test with IL-6 of 1140 nM.

As for `[2H]c1c([2H])c([2H])c(C(=O)Nc2cc3cc(-c4cncn4C)ccc3cn2)c(Cl)c1[2H]` [Compound 82], the inhibition at 10 µM in test [1] (SW480, read-out: percent inhibition at 10 μM) came out at 29.6%; in test [3] it was 31.2%; in the test with IL-6, 47.6%. Moreover, the EC50 is more than 10000 nM in test [1]; 1510 nM at GSK3β kinase; 3310 nM in test [2] (setting [5]); more than 10000 nM in test [3]; 3 nM on DYRK1A kinase; 5.9 µM in test [4] (setting [7]). The compound also displayed a concentration for a half-maximal effect (EC50) in the test on IL-6 of more than 10000 nM.

With `Cc1ncc(-c2ccc3cnc(NC(=O)[C@H]4CC[C@H](N(C)C5COC5)CC4)cc3c2)o1` [Compound 37, trans-4-(methyl(oxetan-3-yl)amino)-N-(6-(2-methyloxazol-5-yl)isoquinolin-3-yl)cyclohexane-1-carboxamide], the concentration for a half-maximal effect (EC50) in test [1] turned out to be 4040 nM; on GSK3β kinase, 138 nM; in test [2] (setting [5]) it was 6890 nM; in test [3] it was 244 nM; on DYRK1A kinase (setting [6]) it was 7 nM; in test [4] (setting [7]), 0.497 µM. Further, a half-maximal response in the test with IL-6 (EC50) required 1340 nM.

Turning to `[2H]C([2H])([2H])C(N[C@H]1CCN(C(=O)Nc2cc3cc(-c4nnc(C)s4)ccc3cn2)C[C@@H]1F)C([2H])([2H])[2H]` [Compound 139, (3S,4S)-3-Fluoro-N-(6-(5-methyl-1,3,4-thiadiazol-2-yl)isoquinolin-3-yl)-4-((propan-2-yl-1,1,1,3,3,3-d6)amino)piperidine-1-carboxamide], the half-maximal effective concentration (EC50) is 2820 nM in test [1]; 33 nM on GSK3β kinase; 7350 nM in test [2] (setting [5]); 2350 nM in test [3]; 22 nM at DYRK1A kinase; 1.4 µM in test [4] (setting [7]). In the test with IL-6, this compound returned an EC50 of more than 10000 nM. The inhibition at 10 µM with IL-6 stood at 6.6%.

Consider `[2H]C([2H])(C(=O)Nc1cc2cc(-c3cncn3C)ccc2cn1)c1ccc(F)cc1` [Compound 95, 2-(4-Fluorophenyl)-N-(6-(1-methyl-1H-imidazol-5-yl)isoquinolin-3-yl) acetamide-2,2-d2], for which the EC50 was 1070 nM in test [1]; 38 nM at GSK3β kinase; 766 nM in test [2] (setting [5]); 276 nM in test [3]; 4 nM at DYRK1A kinase; 0.076 µM in test [4] (setting [7]). In the test with IL-6, the midpoint of the response, the EC50, lay at 339 nM.

For `Cn1cc(-c2ccc3cnc(NC(=O)c4cc[n+]([O-])c(N5CC[N+](C)([O-])CC5)c4)cc3c2)nn1` [Compound 225, 1-methyl-4-(4-((6-(1-methyl-1H-1,2,3-triazol-4-yl)isoquinolin-3-yl)carbamoyl)-1-oxidopyridin-2-yl)piperazine 1-oxide], the EC50 in test [1] was 3850 nM; at GSK3β kinase it was 407 nM; in test [2] (setting [5]) it was more than 10000 nM; in test [3], more than 10000 nM; on DYRK1A kinase, 2 nM; in test [4] (setting [7]), more than 10 µM. The same compound had an EC50 in the test on IL-6 of more than 10000 nM. In addition, the inhibition at 10 µM in test [2] (Homo sapiens, SW480; read-out: percent inhibition at 10 μM) turned out to be 28.7%; in test [3], 24.8%; in the test on IL-6, 6.9%.

Regarding `Cc1nnc(-c2ccc3cnc(NC(=O)N4[C@@H]5CC[C@H]4C[C@@H](NCC(F)F)C5)cc3c2)s1` [Compound 188, (1R,5S)-cis-3-((2,2-difluoroethyl)amino)-N-(6-(5-methyl-1,3,4-thiadiazol-2-yl)isoquinolin-3-yl)-8-azabicyclo [3.2.1]octane-8-carboxamide], the concentration giving a half-maximal response (EC50) in test [1] was 8210 nM; at GSK3β kinase it was 154 nM; in test [2] (setting [5]), more than 10000 nM; in test [3] it was 2480 nM; on DYRK1A kinase (setting [6]) it was 3 nM; in test [4] (SH-SY5Y, read-out: pSer396 Tau EC50 (μM)) it was 4.8 µM. The compound also gave an EC50 with IL-6 of 5770 nM. In addition, the inhibition at 10 µM in test [2] (Homo sapiens, SW480, read-out: percent inhibition at 10 μM) turned out to be 28%.

Consider `[2H]C([2H])([2H])N([C@H]1CC[C@H](C(=O)Nc2cc3cc(-c4cnn(C)c4)ccc3cn2)CC1)C([2H])([2H])[2H]` [Compound 145, trans-4-(Bis(methyl-d3)amino)-N-(6-(1-methyl-1H-pyrazol-4-yl)isoquinolin-3-yl)cyclohexane-1-carboxamide], for which the EC50 in test [1] was determined as 1820 nM; on GSK3β kinase, 80 nM; in test [2] (setting [5]) it was 1490 nM; in test [3], 72 nM; on DYRK1A kinase, 2 nM; in test [4] (setting [7]), 0.503 µM. In addition, the response in the test with IL-6 was half-maximal at 371 nM (EC50).

Regarding `Cc1ncc(-c2ccc3cnc(NC(=O)N4CC[C@H](NC(C)C)[C@@H](F)C4)cc3c2)o1` [Compound 53, (3 S,4S)-3-Fluoro-4-(isopropylamino)-N-(6-(2-methyloxazol-5-yl)isoquinolin-3-yl)piperidine-1-carboxamide], the concentration giving a half-maximal response (EC50) in test [1] worked out at 2810 nM; on GSK3β kinase, 366 nM; in test [2] (setting [5]), 4510 nM; in test [3], 1580 nM; at DYRK1A kinase (setting [6]), 38 nM; in test [4] (setting [7]), 2.3 µM. Moreover, the EC50 in the test with IL-6 was found to be 9360 nM.

For the compound `[2H]C1([2H])N(c2cc(C(=O)Nc3cc4cc(-c5cnc(C)n5C)ccc4cn3)ccn2)C([2H])([2H])C([2H])([2H])C([2H])([2H])C1([2H])[2H]` [Compound 72, N-(6-(1,2-Dimethyl-1H-imidazol-5-yl)isoquinolin-3-yl)-2-(piperidin-1-yl-d10)isonicotinamide], the concentration giving a half-maximal response (EC50) in test [1] is 3310 nM; on GSK3β kinase, more than 10000 nM; in test [2] (setting [5]), 489 nM; in test [3], 937 nM; on DYRK1A kinase, 3 nM; in test [4] (setting [7]) it was 2.6 µM. In addition, in the test with IL-6, it took 1580 nM to reach a half-maximal effect (EC50).

With `Cc1nnc(-c2ccc3cnc(NC(=O)N4CCC(N5CCN(C)CC5)CC4)cc3c2)s1` [Compound 129, N-(6-(5-methyl-1,3,4-thiadiazol-2-yl)isoquinolin-3-yl)-4-(4-methylpiperazin-1-yl)piperidine-1-carboxamide], the half-maximal effective concentration (EC50) is 1810 nM in test [1]; 90 nM on GSK3β kinase; 3620 nM in test [2] (setting [5]); 1990 nM in test [3]; 18 nM at DYRK1A kinase (setting [6]); 0.656 µM in test [4] (setting [7]). In addition, the 50% effective concentration (EC50) in the test with IL-6 is more than 10000 nM. Moreover, the inhibition at 10 µM in the test with IL-6 was 4.5%.

Consider `Cc1ncc(-c2ccc3cnc(NC(=O)[C@H]4CC[C@H](CO)CC4)cc3c2)o1` [Compound 43, trans-4-(hydroxymethyl)-N-(6-(2-methyloxazol-5-yl)isoquinolin-3-yl)cyclohexane-1-carboxamide], for which the concentration for a half-maximal effect (EC50) in test [1] is 239 nM; at GSK3β kinase, 66 nM; in test [2] (setting [5]), 4980 nM; in test [3], 230 nM; at DYRK1A kinase (setting [6]), 2 nM; in test [4] (setting [7]) it was 0.362 µM. Further, a half-maximal effect with IL-6 (EC50) was put at 1070 nM.
